Measured values taken from paper PMC10184127 (Journal of Medicinal Chemistry, 2023).

How the values were obtained:
[1] = target: AgAChE1 (Anopheles gambiae, UniProt Q869C3)
[2] = target: hAChE (Homo sapiens, UniProt P22303)
[3] = at higher concentrations

Chain of AgAChE1 (Q869C3 39-737): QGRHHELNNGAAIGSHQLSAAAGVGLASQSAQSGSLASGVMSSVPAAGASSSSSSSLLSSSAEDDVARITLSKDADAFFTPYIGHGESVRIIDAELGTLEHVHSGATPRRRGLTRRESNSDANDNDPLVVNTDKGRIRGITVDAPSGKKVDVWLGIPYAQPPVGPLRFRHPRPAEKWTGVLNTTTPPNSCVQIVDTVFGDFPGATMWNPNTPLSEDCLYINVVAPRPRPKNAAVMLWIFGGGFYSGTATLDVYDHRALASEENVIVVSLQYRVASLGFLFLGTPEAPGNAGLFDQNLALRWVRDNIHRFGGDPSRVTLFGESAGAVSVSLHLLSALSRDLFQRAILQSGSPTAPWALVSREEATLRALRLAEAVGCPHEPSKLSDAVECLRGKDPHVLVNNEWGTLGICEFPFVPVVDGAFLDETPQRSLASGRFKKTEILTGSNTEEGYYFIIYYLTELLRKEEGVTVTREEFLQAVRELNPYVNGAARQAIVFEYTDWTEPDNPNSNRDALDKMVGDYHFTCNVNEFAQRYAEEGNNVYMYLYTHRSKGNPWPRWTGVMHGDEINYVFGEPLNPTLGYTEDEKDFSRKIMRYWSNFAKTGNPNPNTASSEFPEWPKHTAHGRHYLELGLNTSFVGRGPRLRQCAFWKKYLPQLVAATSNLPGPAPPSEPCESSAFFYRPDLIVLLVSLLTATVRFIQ
Chain of hAChE (P22303 32-614): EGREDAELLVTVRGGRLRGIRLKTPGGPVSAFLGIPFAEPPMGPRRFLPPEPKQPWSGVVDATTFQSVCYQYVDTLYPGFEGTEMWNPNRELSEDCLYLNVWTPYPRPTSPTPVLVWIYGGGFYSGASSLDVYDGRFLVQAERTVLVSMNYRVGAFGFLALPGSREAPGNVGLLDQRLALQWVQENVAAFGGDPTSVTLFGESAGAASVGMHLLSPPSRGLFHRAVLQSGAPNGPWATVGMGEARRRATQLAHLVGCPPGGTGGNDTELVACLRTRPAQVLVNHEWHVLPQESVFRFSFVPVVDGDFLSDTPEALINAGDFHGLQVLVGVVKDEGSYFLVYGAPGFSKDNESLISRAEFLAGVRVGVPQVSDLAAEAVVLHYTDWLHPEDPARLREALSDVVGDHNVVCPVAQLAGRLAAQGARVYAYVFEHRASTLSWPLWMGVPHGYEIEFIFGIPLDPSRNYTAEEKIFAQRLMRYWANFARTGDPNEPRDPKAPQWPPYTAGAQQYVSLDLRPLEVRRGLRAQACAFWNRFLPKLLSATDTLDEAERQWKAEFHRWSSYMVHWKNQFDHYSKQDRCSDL

Q: With `[N-]=[N+]=NCCCN1C(=O)CSC1c1ccccc1` (stereo not drawn) [compound 17, 3-(3-Azidopropyl)-2-phenylthiazolidin-4-one] as the molecule, how does the “IC50 (μM) AgAChE1” value [1] read?
A: Inactive

Q: And the “inhibitory activity towards AgAChE1” value [1]?
A: no detectable inhibitory activity

Q: With `CNCCN1C(=O)CSC1c1cccc2ccccc12.Cl` (stereo not drawn) [compound 54, N-Methyl-2-(2-(naphthalen-1-yl)-4-oxothiazolidin-3-yl)ethan-1-aminium Chloride] as the molecule, how does the “times weaker binders than their tertiary amine analogues” value [1] read?
A: over 10 times

Q: Which results are given for `O=C1CSC(c2ccccc2)N1CCc1ccc(F)cc1` (stereo not drawn) [compound 9, 3-(4-Fluorophenethyl)-2-phenylthiazolidin-4-one]?
A: IC50 (μM) AgAChE1 [1]: Inactive; inhibitory activity towards AgAChE1 [1]: no detectable inhibitory activity

Q: For `CN(C)CCN1C(=O)CSC1c1cccc2ccccc12.Cl` (stereo not drawn) [compound 40, 3-(2-(Dimethylamino)ethyl)-2-(naphthalen-1-yl)thiazolidin-4-one Hydrochloride], which “activity against hAChE” value [2] is on record?
A: inactive

Q: With `CC(C)NCCN1C(=O)CSC1c1cccc2ccccc12.Cl` (stereo not drawn) [compound 43, 3-(2-(Isopropylamino)ethyl)-2-(naphthalen-1-yl)thiazolidin-4-one Hydrochloride] as the molecule, how does the “times weaker binders than their tertiary amine analogues” value [1] read?
A: over 10 times

Q: With `CN(C)CCN1C(=O)CSC1c1ccc(F)cc1.Cl` (stereo not drawn) [compound 37, 3-(2-(Dimethylamino)ethyl)-2-(4-fluorophenyl)thiazolidin-4-one Hydrochloride] as the molecule, how does the “activity against hAChE” value [2] read?
A: inactive

Q: For `CN(C)CCN1C(=O)CSC1c1ccc(Cl)cc1Cl.Cl` (stereo not drawn) [compound 38, 2-(2,4-Dichlorophenyl)-3-(2-(dimethylamino)ethyl)thiazolidin-4-one Hydrochloride], which “activity against hAChE” value [2] is on record?
A: inactive

Q: With `Cl.O=C1CSC(c2ccc(F)cc2)N1CCNC1CC1` (stereo not drawn) [compound 49, 3-(2-(Cyclopropylamino)ethyl)-2-(4-fluorophenyl)thiazolidin-4-one Hydrochloride] as the molecule, how does the “loss of potency vs 3-carbon chain dimethylamine analogue” value [1] read?
A: 13 fold

Q: For `CN(C)CCN1C(=O)CSC1c1cccc(F)c1F.Cl` (stereo not drawn) [compound 39, 2-(2,3-Difluorophenyl)-3-(2-(dimethylamino)ethyl)thiazolidin-4-one Hydrochloride], which “activity against hAChE” value [2] is on record?
A: inactive

Q: Which solubility [3] does the source give for `CN(C)CCCN1C(=O)CSC1c1cccc2ccccc12.Cl` (stereo not drawn) [compound 36, 3-(3-(Dimethylamino)propyl)-2-(naphthalen-1-yl)thiazolidin-4-one Hydrochloride] here?
A: reduced its solubility at higher concentrations
